Data taken from US20130281313A1, “PROGNOSTIC AND/OR PREDICTIVE BIOMARKERS AND BIOLOGICAL APPLICATIONS THEREOF” (INSTITUT GUSTAVE ROUSSY, priority 2010, published 2013).

What was measured:
Assay type in all cases: cell-based, human
A549 cells [1] = assay: Cytofluorometric assessment of cell death (DiOC6(3)/PI co-staining)
CDDP-GG DNA adducts = assay: Immunofluorescence microscopy for the detection of CDDP-GG DNA adducts; conditions: A549 cells, 25 μM CDDP alone or combined with PN
Description: Immunofluorescence staining and measurement of specific DNA platination products was performed essentially as previously described {Dzagnidze, 2007; Liedert, 2006}, with minor modifications. Briefly, cells were spotted onto ImmunoSelect adhesion slides (Squarix GmbH, Marl, Germany), fixed overnight in ice-cold methanol, and subjected to proteolytic digestion with 60 μg/mL pepsin (100 μL per spot, 10 min, 37° C., in a moist chamber) and 40 μg/mL proteinase K (100 μL per spot, 10 min, 37° C., in a moist chamber). Upon blockage of unspecific binding sites with 5% (w/v) non-fat powdered milk in PBS, slides were incubated with a rat primary antibody that specifically recognizes CDDP-GG DNA adducts (RC-18) (at 37° C. for 2 h or at 4° C. overnight). […] Images were acquired on an Axioplan fluorescence microscope (Carl Zeiss GmbH, Göttingen, Germany) coupled to a C4880 CCD camera (Hamamatsu Photonics, Herrsching, Germany). For the detection of CDDP-GG DNA adducts by immunofluorescence microscopy, fluorescence signals were measured by quantitative digital image analysis with the ACAS 6.0 Cytometry Analysis System (ACAS II, Asbach, Germany). The levels of adducts in each sample were calculated as arbitrary fluorescence units (AFUs), upon normalization of integrated antibody-derived fluorescence from 200 nuclei/sample to the corresponding DNA content. […]

A549 cells [2] = assay: Real-time measurements of cell adherence (impedance); conditions: 50 μM CDDP alone or with 5 mM PN
Description: 5×10^3 A549 cells were seeded in standard culture conditions on 96-well plates coated with gold microelectrodes (E-plates™, Roche) and let adapt and recover growth for 40 h. Thereafter, cells were treated with 50 μM CDDP alone or in association with 5 mM PN for additional 48 h. Since plating, the adherence of cells to the plate was monitored every 15 min (as a function of plate impedance) by means of an xCELLigence™ Real-Time Cell Analyzer (RTCA, from Roche).
Cell adherence was measured in 3 parallel wells for each experimental condition.
Results are reported as mean cell index (CI) values, which constitute an indication of electrode impedance, ±SEM.

A549 cells [3] = assay: Quantification of intracellular PN (LC-MS/MS); conditions: 24 or 48 h
Description: A549 cells were cultured in absence or the presence of 5 mM PN for 24 or 48 h, harvested, washed once in cold PBS and pelleted at 800 G for 10 min. Supernatants were discarded and pellets were dissolved in 500 μL of deionized H2O by vortexing for 1 min followed by sonication for 10 min. Thereafter, lysates were centrifuged at 5,796 G for 10 min and 60 μL of the resulting supernatant were mixed with an equal volume of trichloroacetic acid (TCA). Upon additional centrifugation (5,796 G, 10 min), 50 μL of sample were injected onto the chromatographic column and PN was measured by liquid chromatography with tandem mass spectrometry (LC-MS/MS), as previously described {Johansson, 2010; Midttun, 2009}.

## Cc1ncc(CO)c(CO)c1O [PN, pyridoxine]
A549 cells [1]; A549 cells, 25 μM CDDP, co-treated for 48 h
  CDDP-induced cell death upon acute addition of the vitamer (DiOC6(3)/PI co-staining): exacerbated CDDP-induced cell death
A549 cells [1]; siPDXK-transfected A549 cells, CDDP
  effects of PN on CDDP-induced cell death upon PDXK depletion: lost upon PDXK depletion
CDDP-GG DNA adducts
  CDDP-DNA adducts: significantly increased CDDP-DNA adducts
A549 cells [2]
  CDDP-induced cell death measured as impedance caused by attached, viable cells: exacerbated CDDP-induced cell death
A549 cells [3]
  intracellular PN concentration upon acute addition: increased the intracellular PN concentration
